Laboratory results from US5149859A, “Naphthalene derivatives” (Teijin Limited, priority 1989, dated 1992).
Like-named read-outs stand apart in the source and are kept apart here.

Key:
Format in all cases: cell-based
lipoxygenase [1] = assay: Activity of inhibiting lipoxygenase production in human whole blood (Table 1-1); settings: A23187 25 μM, 15 min
Experimental: Evaluation of activity of inhibiting lipoxygenase production in human whole blood Into 2 ml of a heparin-treated vein blood of a healthy person without administration of a drug was added 2 μl of the DMSO solution containing the test sample of the sulfide ketone derivative listed in Table 1-1 as the drug to be tested (final 10^-5 M). After treatment at 37° C. for 5 minutes, 10 μl of a DMSO solution of A23187 was added (final 25 μM) to carry out the treatment at 37° C. for 15 minutes, followed by ice-cooling. As the internal standard substance for quantitation, 10 μl of a DMSO solution of 100 ng of 15-HETE was added, and then 0.8 ml of acetonitrile was added and the precipitates formed were removed by centrifugation. LTB4, 5-HETE, 12-HETE in the supernatant were separated and quantitated. The results are shown in Table 1-1 as the lipoxygenase production inhibitory ratio. | *For only this compound, the results are shown in "× 10^-4

lipoxygenase [2] = assay: Activity of inhibiting lipoxygenase production in human whole blood (Table 2-1); settings: final 10^-4 M, 37° C., 15 min, 100 µM; for Inhibitory ratio (%) 12-HETE: A23187 25 μM; for Inhibitory ratio (%) 5-HETE / Inhibitory ratio (%) LTB4: A23187 25 μm
Experimental: Evaluation of activity of inhibiting lipoxycenase production in human whole blood Into 2 ml of a heparin-treated vein blood of a healthy person without administration of a drug was added 2 μl of the DMSO solution of each compound listed in Table 2-1 (final 10^-4 M). After treatment at 37° C. for 5 minutes, 10 μl of a DMSO solution of A23187 was added (final 25 μm) to carry out the treatment at 37° C. for 15 minutes, followed by ice-cooling. As the internal standard substance for quantitation, 10 μl of a DMSO solution of 100 ng of 15-HETE was added, and then 0.8 ml of acetonitrile was added and the precipitates formed were removed by centrifugation. LTB4, 5-HETE, 12-HETE in the supernatant were separated and quantitated. The results are shown in Table 2-1 as a production inhibitory ratio of LTB4.

lipoxygenase [3] = molecular target: T1, lipoxygenase (Homo sapiens, UniProt P09917); assay: Activity of inhibiting lipoxygenase production in human whole blood (Table 3-1); settings: 0.25 h, final 10^-5 M, A23187 25 μM, 37° C.
T1 construct: heparin-treated vein blood of a healthy person without administration of a drug; from tissue; host or cells: human heparinised venous whole blood
T1 sequence (P09917 1-674): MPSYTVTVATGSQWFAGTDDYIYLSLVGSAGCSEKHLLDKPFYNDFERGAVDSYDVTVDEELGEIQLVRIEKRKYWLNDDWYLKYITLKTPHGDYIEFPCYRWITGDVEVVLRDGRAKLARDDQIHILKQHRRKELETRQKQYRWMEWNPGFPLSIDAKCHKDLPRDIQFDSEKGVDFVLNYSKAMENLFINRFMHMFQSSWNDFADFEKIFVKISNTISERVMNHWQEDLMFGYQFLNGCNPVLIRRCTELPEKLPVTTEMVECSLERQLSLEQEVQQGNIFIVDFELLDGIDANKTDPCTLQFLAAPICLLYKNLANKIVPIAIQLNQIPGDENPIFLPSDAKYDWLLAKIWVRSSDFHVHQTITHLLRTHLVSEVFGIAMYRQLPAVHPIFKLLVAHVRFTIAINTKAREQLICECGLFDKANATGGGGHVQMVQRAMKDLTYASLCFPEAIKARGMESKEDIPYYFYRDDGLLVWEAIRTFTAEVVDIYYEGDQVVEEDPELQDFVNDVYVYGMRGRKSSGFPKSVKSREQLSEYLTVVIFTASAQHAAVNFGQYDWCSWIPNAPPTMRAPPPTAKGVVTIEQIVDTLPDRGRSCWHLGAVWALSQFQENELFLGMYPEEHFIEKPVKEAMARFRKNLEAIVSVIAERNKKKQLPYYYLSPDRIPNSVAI
Experimental: Evaluation of activity of inhibiting lipoxygenase production in human whole blood
Into 1 ml of a heparin-treated vein blood of a healthy person without administration of a drug was added 1 μl of the DMSO solution of each compound listed in Table 3-1 (final 10^-5 M). After treatment at 37° C. for 5 minutes, 5 μl of a DMSO solution of calcium ionophone (A23187, 25 μM) was added to carry out the treatment at 37° C. for 15 minutes, followed by ice-cooling. As the internal standard substance for quantitation, 10 μl of a DMSO solution of 100 ng of 15-HETE was added, then 0.8 ml of acetonitrile was added, and the precipitates formed were removed by centrifugation. LTB4, 5-HETE in the supernatant were separated and quantitated, and the results are shown as the production inhibitory ratio of LTB4, etc. in Table 3-1.

lipoxygenase [4] = molecular target: T2, lipoxygenase (Rattus norvegicus, UniProt P12527); assay: Activity of inhibiting lipoxygenase production in basophilic leukemia (RBL-1) cells (Table 3-2); settings: 0.25 h, arachidonic acid 50 μg, A23187 25 μM, read-out: Inhibitory ratio (%) LTB4; for inhibition at 1 µM: 10^-6 M; for inhibition at 0.1 µM: 10^-7 M
T2 construct: A 5×10^6 amount cells of RBL-1 were used; endogenous in cells; host or cells: RBL-1 (basophilic leukemia cells)
T2 sequence (P12527 1-673): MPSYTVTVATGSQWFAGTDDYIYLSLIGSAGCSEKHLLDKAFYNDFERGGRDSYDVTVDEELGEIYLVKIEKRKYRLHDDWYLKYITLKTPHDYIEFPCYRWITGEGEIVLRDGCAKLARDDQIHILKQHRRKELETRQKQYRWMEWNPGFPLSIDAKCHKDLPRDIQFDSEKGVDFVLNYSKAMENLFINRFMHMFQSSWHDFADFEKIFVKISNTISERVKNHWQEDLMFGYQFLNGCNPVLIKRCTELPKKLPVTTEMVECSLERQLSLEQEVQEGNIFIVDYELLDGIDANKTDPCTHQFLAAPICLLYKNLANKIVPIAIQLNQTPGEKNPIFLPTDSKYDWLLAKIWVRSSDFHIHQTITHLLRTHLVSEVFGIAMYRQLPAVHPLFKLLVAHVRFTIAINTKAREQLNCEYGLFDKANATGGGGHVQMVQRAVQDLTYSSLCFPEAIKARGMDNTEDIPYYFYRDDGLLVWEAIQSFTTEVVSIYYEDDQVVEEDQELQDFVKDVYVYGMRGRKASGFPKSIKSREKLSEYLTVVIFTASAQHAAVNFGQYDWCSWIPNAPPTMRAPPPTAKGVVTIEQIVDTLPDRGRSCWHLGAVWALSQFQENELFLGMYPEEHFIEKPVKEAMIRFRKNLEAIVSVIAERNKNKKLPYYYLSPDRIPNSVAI
Experimental: Evaluation of activity of inhibiting lipoxygenase production […] (RBL-1) cells
A 5×10^6 amount cells of RBL-1 were used and the DMSO solution of each compound listed in Table 3-2 was added thereto so that the final concentration was obtained. After incubation at 37° C. for 5 minutes, 50 μg of arachidonic acid and 25 μM of calcium ionophore (A23187) were added thereto, followed by incubating at 37° C. for 15 minutes. The extraction was carried out after the reaction was completed. The product was determined by reversed phase HPLC.

[5] = footnote: results shown in × 10^-4 (only this compound)
[6] = read-out: Inhibitory ratio (%) 5-HETE
[7] = read-out: Inhibitory ratio (%) LTB4

SMILES: COC(=O)CCCC(Sc1ccc2cc(OC)ccc2c1)C(C)=NO (stereo not drawn) [Example 1-4]
- Inhibitory ratio (%) 5-HETE (lipoxygenase [1]; [5]): 43%
- Inhibitory ratio (%) 12-HETE (lipoxygenase [1]; [5]): 29%

SMILES: COC(=O)CCCC(=O)C(=O)c1ccc2cc(O)ccc2c1 [Example 2-4, methyl 6-(6-hyerocy-2-naphthyl)-5,6-dioxohexanoate]
- Inhibitory ratio (%) 12-HETE (lipoxygenase [2]): 3%
- Inhibitory ratio (%) 5-HETE (lipoxygenase [2]): 81%
- Inhibitory ratio (%) LTB4 (lipoxygenase [2]): 78%

SMILES: COC(=O)COCC(=O)N(O)c1ccc2ccccc2c1O [Example 3-6, N-hydroxy-N-(1-hydroxy-2-naphthyl)-4-methoxycarbonyl-3-oxabutanamide]
- inhibition at 10 µM (lipoxygenase [3]; [6]): 18%
- inhibition at 10 µM (lipoxygenase [3]; [7]): 24%

SMILES: COC(=O)CCCC(=NO)C(=NO)c1ccc2cc(O)ccc2c1 [Example 2-5, methyl 6-(6-hydroxy-2-naphthyl)-5,6-dihydroxyiminohexanoate]
- Inhibitory ratio (%) 12-HETE (lipoxygenase [2]): 4%
- Inhibitory ratio (%) 5-HETE (lipoxygenase [2]): 78%
- Inhibitory ratio (%) LTB4 (lipoxygenase [2]): 93%

SMILES: COC(=O)CCCCC(=O)N(O)c1ccc2ccccc2c1O [Example 3-4, N-hydroxy-N-(1-hydroxy-2-naphthyl)-5-methoxycarbonylpentanamide]
- inhibition at 10 µM (lipoxygenase [3]; [6]): 38%
- inhibition at 10 µM (lipoxygenase [3]; [7]): 45%

SMILES: COC(=O)CCCCCC(=O)N(O)c1ccc2ccccc2c1O [Example 3-5, N-hydroxy-N-(1-hydroxy-2-naphthyl)-6-methoxycarbonylhexanamide]
- inhibition at 10 µM (lipoxygenase [3]; [6]): 40%
- inhibition at 10 µM (lipoxygenase [3]; [7]): 39%

SMILES: COC(=O)CCC(=O)N(O)Cc1ccc2ccccc2c1 [Example 3-7, N-hydroxy-N-(2-naphthylmethyl)-3-methoxycarbonylpropionamide]
- inhibition at 10 µM (lipoxygenase [3]; [6]): 59%
- inhibition at 10 µM (lipoxygenase [3]; [7]): 71%

SMILES: COC(=O)CCCC(=O)N(O)Cc1ccc2ccccc2c1 [Example 3-8, N-hydroxy-N-(2-naphthylmethyl)-4methoxycarbonylbutanamide]
- inhibition at 10 µM (lipoxygenase [3]; [6]): 59%
- inhibition at 10 µM (lipoxygenase [3]; [7]): 60%

SMILES: O=C(O)CCCC(=O)N(O)c1ccc2ccccc2c1O [Example 3-3, N-hydroxy-N-(1-hydroxy-2-naphthyl)-4-carboxybutanamide]
- inhibition at 1 µM (lipoxygenase [4]): 35%
- inhibition at 0.1 µM (lipoxygenase [4]): 20%

SMILES: COC(=O)CCCC(=O)N(O)Cc1ccc2ccccc2c1OC [Example 3-9, N-hydroxy-N-(1-methoxy-2-naphthylmethyl)-4-methoxycarbonylbutanamide]
- inhibition at 10 µM (lipoxygenase [3]; [6]): 27%
- inhibition at 10 µM (lipoxygenase [3]; [7]): 40%

SMILES: COC(=O)CCC(CSc1ccc2cc(O)ccc2c1)=NO [Example 1-11, methyl 5-(6-hydroxy-2-naphthylthio)-4-hydroxyiminopentanoate]
- Inhibitory ratio (%) 5-HETE (lipoxygenase [1]; final 10^-5 M, 37° C., 10 µM): 56%
- Inhibitory ratio (%) 12-HETE (lipoxygenase [1]; final 10^-5 M, 37° C., 10 µM): 28%
- Inhibitory ratio (%) LTB4 (lipoxygenase [1]; final 10^-5 M, 37° C., 10 µM): 64%

SMILES: COC(=O)CCCC(=O)CSc1ccc2cc(O)ccc2c1 [Example 1-12, methyl 6-(6-hydroxy-2-naphthylthio)-5-oxohexanoate]
- Inhibitory ratio (%) 5-HETE (lipoxygenase [1]; final 10^-5 M, 37° C., 10 µM): 6%
- Inhibitory ratio (%) 12-HETE (lipoxygenase [1]; final 10^-5 M, 37° C., 10 µM): 17%
- Inhibitory ratio (%) LTB4 (lipoxygenase [1]; final 10^-5 M, 37° C., 10 µM): 2%
- inhibition at 1 µM (lipoxygenase [4]): 53%
- inhibition at 0.1 µM (lipoxygenase [4]): 27%
- inhibition at 0.01 µM (lipoxygenase [4]; 10^-8 M): 28%

SMILES: COC(=O)CCCC(=O)N(O)c1ccc2ccccc2c1O [Example 3-2, N-hydroxy-N-(1-hydroxy-2-naphthyl)-4-methoxycarbonylbutanamide]
- inhibition at 10 µM (lipoxygenase [3]; [6]): 80%

SMILES: O=C(O)CCCC(=O)CSc1ccc2cc(O)ccc2c1 [Example 1-14, 6-(6-hydroxy-2-naphthylthio)-5-oxohexanoic acid]
- Inhibitory ratio (%) 5-HETE (lipoxygenase [1]; final 10^-5 M, 37° C., 10 µM): 49%
- Inhibitory ratio (%) 12-HETE (lipoxygenase [1]; final 10^-5 M, 37° C., 10 µM): 20%
- Inhibitory ratio (%) LTB4 (lipoxygenase [1]; final 10^-5 M, 37° C., 10 µM): 37%

SMILES: CON=C(CSc1ccc2cc(OC)ccc2c1)CC(=O)OC [Example 1-6, methyl 4-(6-methoxy-2-naphthylthio)-3-methoxyiminobutanoate]
- Inhibitory ratio (%) 5-HETE (lipoxygenase [1]; final 10^-5 M, 37° C., 10 µM): 29%
- Inhibitory ratio (%) LTB4 (lipoxygenase [1]; final 10^-5 M, 37° C., 10 µM): 37%

SMILES: COC(=O)c1cccc(C(=O)N(O)c2ccc3ccccc3c2O)c1 [Example 3-10, N-hydroxy-N-(1-hydroxy-2-naphthyl)-3-methoxycarbonylbenzamide]
- inhibition at 10 µM (lipoxygenase [3]; [6]): 45%
- inhibition at 10 µM (lipoxygenase [3]; [7]): 63%

SMILES: COC(=O)CCCC(=NO)C(=O)c1ccc2cc(O)ccc2c1 [Example 2-9, methyl 6-(6-hydroxy-2-naphthyl)-5-hydroxvimino-6-oxohexanoate]
- Inhibitory ratio (%) 12-HETE (lipoxygenase [2]): 27%
- Inhibitory ratio (%) 5-HETE (lipoxygenase [2]): 77%
- Inhibitory ratio (%) LTB4 (lipoxygenase [2]): 66%
